Measured values from US9782412B2, “Preventive and/or therapeutic agent of immune disease” (TAIHO PHARMACEUTICAL CO., LTD., priority 2015, dated 2017).

How the values were obtained:
[1] = system: RBL-2H3 cells; experiment: Inhibitory activity against allergic reaction using RBL-2H3 cells (PGD2 production); format: cell-based, rat; conditions: Rattus norvegicus, RBL-2H3, RBL-2H3 cells, anti-DNP IgE / DNP-BSA; read-out: PGD2 production inhibitory concentration (IC50; (nM))
Protocol: Rat basophilic leukemia cells, RBL-2H3, were suspended in MEM medium containing 10% FBS, and then the cells were inoculated in a culture plate, and cultured in a CO2 incubator (Sanyo Electric Biomedical Co., Ltd.) at 37° C. for 12 hours. After a culture supernatant was removed and the cells were washed, an anti-DNP-mouse IgE (Alpha Diagnostic Inc.) solution was added thereto, and the cells were cultured in the CO2 incubator for 1 hour. After a culture supernatant was removed and the cells were washed, an MEM medium was added thereto.
Further, a DNP-BSA (LSL, Inc.) solution was added thereto and the cells were cultured in the CO2 incubator for 15 minutes. A culture supernatant was collected and reacted, with PGD2-MOX EIA kit (Cayman Chemical Inc.) on the basis of the protocol attached thereto, and absorbance was measured by SUNRISE RAINBOW THERMO (TECAM Inc.).

[2] = system: TNP-IgE mice; experiment: Mouse antigen-induced dermatitis model; format: in vivo; conditions: for Ear swelling control ratio (%): 30 minutes before allergen, 2 hours after antigen; for ear swellings induced by the allergen application: from low dose, compared with Reference compound 1
Source text: Type I allergy models accompanied by a skin symptom (a dermatitis model) were produced, with TNP-IgE mice (CLEA Japan, Inc.). The mice are genetically modified BALB/c mice that constantly produce an IgE specific to hapten TNP (trinitrophenol) which is widely used as an allergen (antigen). It is possible to induce an allergic reaction in the mice, only by administering an allergen, without carrying out an immunization. […] An average value of thickening values of both ears was obtained as a value of an individual (provided that a previous value before the allergen application was 0 mm).
Ear swelling control ratio (%) was calculated by the following formula. Ear swelling control ratio (%)=(1−(Average value of ear thickening of compound administered group)/(Average value of ear thickening of vehicle administered group))×100

[3] = biological target: T1, recombinant human BTK protein (Homo sapiens, UniProt Q06187); experiment: Measurement of BTK inhibitory activity (in vitro); format: biochemical; conditions: ATP 45 μM, 40 minutes at 25° C.
T1 construct: purchased Carna Biosciences, Inc
Source text: Regarding the setting of the conditions for a method for measuring the inhibitory activity of a compound against BTK kinase activity in vitro, it is described in the consumable reagent supplies price list for LabChip (registered trademark) series of PerkinElmer, Inc. that FL-PEPTIDE 2 corresponds to a substrate peptide for the measurement of BTK kinase activity. Therefore, FL-PEPTIDE 2 was used as a substrate. The purified recombinant human BTK protein used in the test was purchased from Carna Biosciences, Inc.
Regarding the measurement of the inhibitory activity of the compounds, firstly, the compounds of the present invention were diluted stepwise with DMSO. Subsequently, BTK protein, a substrate peptide (final concentration was 1 μM), magnesium chloride (final concentration was 10 mM), ATP (final concentration was 45 μM), and a DMSO solution of the compounds of the present invention (final concentration of DMSO was 5%) were added to a buffer solution for kinase reaction (20 mM HEPES (pH 7.5), 2 mM dithiotheitol, 0.01% Triton X-100), and after the solution was incubated for 40 minutes at 25° C., a kinase reaction was carried out. The reaction was terminated by adding EDTA thereto so as to obtain a final concentration of 30 mM. Finally, a substrate peptide that was not phosphorylated (S) and a phosphorylated peptide (P) were separated and detected by microchannel capillary electrophoresis with a LabChip EZ Reader II (PerkinElmer, Inc.).

[4] = system: A431 cells/TMD8 cells; experiment: Proliferation inhibitory activity against cell lines expressing BTK and EGFR, comparison of selectivity; format: cell-based, human; conditions: cells cultured three days with compound, CELLTITER GLO
Source text: TMD8 cells, which are of a diffuse large B-cell lymphoma cell line expressing BTK, were suspended in RPMI1640 medium (Life Technologies Corp.) containing 10% fetal bovine serum. A431 cells, which are of an EGFR-overexpressing, highly activated human epidermoid carcinoma cell line, were suspended in DMEM, high glucose medium (Life Technologies Corp.) containing 10% fetal bovine serum. The cell suspensions were inoculated into each well of 384-well flat-bottomed microplates, and the cells were cultured for one day at 37° C. in an incubator containing 5% carbon dioxide gas. […] A DMSO solution of the test compounds was diluted with the medium used in the suspension of the each cell, and this was added to each of the wells of the cell culture plates such that the final concentration of DMSO would be 0.2%. The cells were further cultured for three days at 37° C. in an incubator containing 5% carbon dioxide gas. […] Proliferation inhibition ratio (%)=(C−T)/(C−C0)×100
T: Luminescence intensity of a well in which the test compound was added
C: Luminescence intensity of a well in which the test compound was not added
C0: Luminescence intensity of a well measured before the addition of the test compound
When a comparison is made between the cell proliferation inhibitory activity against A431 cells that depends on the EGFR proliferation signaling and the cell proliferation inhibitory activity against TMD8 cells that depends on the BTK proliferation signaling, the influence of the respective kinases at a cellular level is able to be evaluated. That is, when the “A431 cell proliferation inhibition ratio/TMD8 cell proliferation inhibition ratio” is calculated, it is contemplated that as the value of the ratio is larger, the selectivity to BTK over EGFR in the cells is higher.

[5] = system: EGFR/BTK; experiment: BTK inhibition selectivity compared with EGFR kinase inhibitory activity (in vitro); format: biochemical, human; conditions: ratio of IC50 values
Protocol: Therefore, a biotinated peptide (biotin-[…]) was produced by referring to the amino acid sequence of the peptide. The purified recombinant human EGFR protein used in the test was purchased from Carna Biosciences, Inc.
Regarding the measurement of the inhibitory activity of the compounds, firstly, the compounds of the present invention were diluted stepwise with DMSO. […] The reaction was terminated by adding EDTA thereto so as to obtain a final concentration of 24 mM. Subsequently, a detection liquid containing Eu-labeled anti-phosphorylated tyrosine antibody PT66 (PerkinElmer, Inc.) and SureLight APC-SA (PerkinElmer, Inc.) was added thereto, and the system was left to stand for 2 hours or longer at room temperature.

[6] = biological target: T2, phosphorylated BTK protein in Ramos cells (Homo sapiens, UniProt Q06187); experiment: Inhibitory activity against B-cell activation using Ramos cells (BTK phosphorylation); format: cell-based; conditions: anti-human IgM stimulation, pY223 Western blotting, read-out: Phosphorylated BTK inhibitory concentration (IC50, (nM))
T2 construct: endogenous in cells; host or cells: Ramos cells
Protocol: The human B-cell lymphoma-derived cell line, Ramos cells were suspended in RPMI1640 medium, and then the cells were inoculated in a culture plate at a concentration of 2.0×10^6 (cells/well). The cells were cultured in a CO2 incubator (Sanyo Electric Biomedical Co., Ltd.) at 37° C. for 12 hours. […] Then, 10 minutes of stimulation was provided with Goat F(ab′)2 anti-human IgM antibody-UNLB (southern biotech Corp.). Thereafter, the cells were harvested, and 50 μL of (a cell extract (NP-40; Invitrogen, Inc.) containing 1×protease inhibitor (Hoffmann-La Roche AG) and 1×phosphatase cocktail inhibitor (Sigma-Aldrich Co.)) was added to the cell pellets. The cell pellets were left to stand for 10 minutes on ice. The amount of protein in the collected cell extract was quantitatively analyzed by a DC protein assay (Bio-Rad Laboratories, Inc.), and 20 μg of proteins per lane was applied to a Criterion TGX™ (Bio-Rad Laboratories, Inc.). After electrophoresis was performed, Western blotting was performed with Trans-Blot™ Turbo™ (Bio-Rad Laboratories, Inc.). Thereafter, phosphorylated BTK protein and BTK protein were detected with LAS4000 (GE Healthcare, Inc.) with a BTK phosphor (pY223) antibody (EPITOMICS Inc.) and a BTK antibody (Abcam, plc.).

[7] = Influence on body weight of SD rat by repeated administration; format: in vivo; conditions: 750 mg/kg orally once a day, two weeks
Protocol: The rats were grouped as follows, with four animals in each group, by a random classification method such that the average body weights of the respective groups would be almost uniform (Day 1).
The body weight change (BWC) was used as an index indicating the systemic toxicity caused by the compound administration. The BWC was calculated by the following formula. BWC (%)=([(Rat body weight on 14 days after the administration)−(Rat body weight at the time of grouping)]/(Rat body weight at the time of grouping))×100
The relative body weight change ratios in the each compound-administered groups were calculated by the following formula when the BWC in the vehicle-administered group was set as 1, and the results are indicated in Table 25. Relative body weight change ratio (%)=(BWC in the compound-administered group)/BWC in the vehicle-administered group)×100

T1 sequence (Q06187 whole entry): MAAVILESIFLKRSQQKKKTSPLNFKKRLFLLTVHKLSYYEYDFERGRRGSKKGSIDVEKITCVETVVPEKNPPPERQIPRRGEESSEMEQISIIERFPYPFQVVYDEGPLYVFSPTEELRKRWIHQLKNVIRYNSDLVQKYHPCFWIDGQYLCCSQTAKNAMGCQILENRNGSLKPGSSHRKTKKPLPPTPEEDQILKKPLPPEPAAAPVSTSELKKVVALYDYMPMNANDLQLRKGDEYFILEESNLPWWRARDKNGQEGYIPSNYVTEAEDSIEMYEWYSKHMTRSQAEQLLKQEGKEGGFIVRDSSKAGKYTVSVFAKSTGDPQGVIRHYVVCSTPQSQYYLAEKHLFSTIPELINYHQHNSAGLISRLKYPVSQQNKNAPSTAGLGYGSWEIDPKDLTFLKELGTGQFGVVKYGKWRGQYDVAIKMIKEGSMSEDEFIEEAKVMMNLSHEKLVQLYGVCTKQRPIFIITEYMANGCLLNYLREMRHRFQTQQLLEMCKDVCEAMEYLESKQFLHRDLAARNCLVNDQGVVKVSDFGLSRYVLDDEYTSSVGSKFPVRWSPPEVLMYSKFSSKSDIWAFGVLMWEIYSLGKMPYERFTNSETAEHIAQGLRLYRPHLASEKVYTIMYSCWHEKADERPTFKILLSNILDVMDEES
T2 sequence (Q06187 whole entry): as above

Structure (SMILES): C=CC(=O)N1CCC[C@@H](n2nc(C(=O)Nc3nc4cc(Cl)ccc4o3)c3c(N)ncnc32)C1 [Example 1, (R)-1-(1-acryloylpiperidin-3-yl)-4-amino-N-(5-chlorobenzo[d]oxazol-2-yl)-1H-pyrazolo[3,4-d]pyrimidine-3-carboxamide]
- IC50 [1]: 37 nM
- Ear swelling control ratio (%) ([2]; 1 mg/kg oral): 66%
- Ear swelling control ratio (%) ([2]; 3 mg/kg oral): 81%
- ear swellings induced by the allergen application [2]: suppressed equivalently or strongly ear swellings

Structure (SMILES): C=CC(=O)N1CCC[C@@H](n2nc(C(=O)Nc3nc4cc(C#N)ccc4o3)c3c(N)ncnc32)C1 [Example 6, (R)-1-(1-acryloylpiperidin-3-yl)-4-amino-N-(5-cyanobenzo[d]oxazol-2-yl)-1H-pyrazolo[3,4-d]pyrimidine-3-carboxamide]
- IC50 [3]: 0.738 nM
- A431 cell proliferation inhibition ratio/TMD8 cell proliferation inhibition ratio [4]: 2786.0
- Ear swelling control ratio (%) ([2]; 3 mg/kg oral): 45%

Structure (SMILES): C=CC(=O)N1CCC[C@@H](n2nc(C(=O)Nc3nc4cc(CCOC)ccc4o3)c3c(N)ncnc32)C1 [Example 8, (R)-1-(1-acryloylpiperidin-3-yl)-4-amino-N-(5-(2-methoxyethyl)benzo[d]oxazol-2-yl)-1H-pyrazolo[3,4-d]pyrimidine-3-carboxamide]
- IC50 [3]: 1.27 nM
- EGFR inhibitory activity IC50 value (nM)/BTK inhibitory activity IC50 value (nM) [5]: 22.9

Structure (SMILES): C=C(C)C(=O)N1CCC[C@@H](n2nc(C(=O)Nc3nc4cc(F)ccc4o3)c3c(N)ncnc32)C1 [Example 11, (R)-4-amino-N-(5-fluorobenzo[d]oxazol-2-yl)-1-(1-methacryloylpiperidin-3-yl)-1H-pyrazolo[3,4-d]pyrimidine-3-carboxamide]
- IC50 [3]: 2.14 nM
- EGFR inhibitory activity IC50 value (nM)/BTK inhibitory activity IC50 value (nM) [5]: 1294.6

Structure (SMILES): C=CC(=O)N1CCC[C@@H](n2nc(C(=O)Nc3nc4cc(F)ccc4o3)c3c(N)ncnc32)C1 [Example 12, (R)-1-(1-acryloylpiperidin-3-yl)-4-amino-N-(5-fluorobenzo[d]oxazol-2-yl)-1H-pyrazolo[3,4-d]pyrimidine-3-carboxamide]
- IC50 [6]: 0.18 nM
- IC50 [1]: 15 nM
- Ear swelling control ratio (%) ([2]; 1 mg/kg oral): 64%
- Ear swelling control ratio (%) ([2]; 3 mg/kg oral): 80%
- ear swellings induced by the allergen application [2]: suppressed equivalently or strongly ear swellings
- Relative body weight change ratio (%) [7]: 91.2%

Structure (SMILES): C/C=C/C(=O)N1CCC[C@@H](n2nc(C(=O)Nc3nc4ccccc4o3)c3c(N)ncnc32)C1 [Example 14, (R,E)-4-amino-N-(benzo[d]oxazol-2-yl)-1-(1-(but-2-enoyl)piperidin-3-yl)-1H-pyrazolo[3,4-d]pyrimidine-3-carboxamide]
- IC50 [3]: 14.1 nM
- EGFR inhibitory activity IC50 value (nM)/BTK inhibitory activity IC50 value (nM) [5]: 128.1
- A431 cell proliferation inhibition ratio/TMD8 cell proliferation inhibition ratio [4]: >1400.6

Structure (SMILES): CN(C)C/C=C/C(=O)N1CCC[C@@H](n2nc(C(=O)Nc3nc4cc(-c5cccs5)ccc4o3)c3c(N)ncnc32)C1 [Example 21, (R,E)-4-amino-N-(5-(thiophen-2-yl)benzo[d]oxazol-2-yl)-1-(1-(4-(dimethylamino)but-2-enoyl)piperidin-3-yl)-1H-pyrazolo[3,4-d]pyrimidine-3-carboxamide]
- IC50 [3]: 0.777 nM
- EGFR inhibitory activity IC50 value (nM)/BTK inhibitory activity IC50 value (nM) [5]: 147.4

Structure (SMILES): C=CC(=O)N1CC[C@@H](n2nc(C(=O)Nc3nc4cc(OC)ccc4o3)c3c(N)ncnc32)C1 [Example 38, (R)-1-(1-acryloylpyrrolidin-3-yl)-4-amino-N-(5-methoxybenzo[d]oxazol-2-yl)-1H-pyrazolo[3,4-d]pyrimidine-3-carboxamide]
- IC50 [3]: 0.888 nM

Structure (SMILES): C=CC(=O)N1CC(n2nc(C(=O)Nc3nc4cc(Cl)ccc4o3)c3c(N)ncnc32)C1 [Example 45, 1-(1-acryloylazetidin-3-yl)-4-amino-N-(5-chlorobenzo[d]oxazol-2-yl)-1H-pyrazolo[3,4-d]pyrimidine-3-carboxamide]
- IC50 [3]: 1.25 nM

Structure (SMILES): CN(C)C/C=C/C(=O)N1CC(n2cc(C(=O)Nc3nc4cc(Cl)ccc4o3)c3c(N)ncnc32)C1 [Example 47, (E)-4-amino-N-(5-chlorobenzo[d]oxazol-2-yl)-7-(1-(4-(dimethylamino)but-2-enoyl)azetidin-3-yl) 7H-pyrrolo[2,3-d]pyrimidine-5-carboxamide]
- IC50 [3]: 7.34 nM
- EGFR inhibitory activity IC50 value (nM)/BTK inhibitory activity IC50 value (nM) [5]: 20.4
